Reference: the NIST ThermoML archive (doi:10.1016/j.jct.2004.09.021)

Assays:
[1] = xn = mol fraction of the nth substance listed; conditions: 101 kPa, Liquid
[2] = refractive index (Na D-line) (dimensionless); xn = mol fraction of the nth substance listed; conditions: 101 kPa, Liquid

COc1ccccc1 [anisole] + CCCCCC
Conditions	mass density, 293.15 K [kg/m3]	mass density, 298.15 K [kg/m3]	mass density, 303.15 K [kg/m3]	refractive index, 293.15 K	refractive index, 298.15 K	refractive index, 303.15 K	viscosity, 293.15 K [mPa·s]	viscosity, 298.15 K [mPa·s]	viscosity, 303.15 K [mPa·s]
[1], x1 = 0.0993	688.1	683.56	678.98	–	–	–	0.3336	0.3159	0.305
[1], x1 = 0.1959	716.85	712.32	707.69	–	–	–	0.3594	0.3451	0.3257
[1], x1 = 0.3008	749.04	744.42	739.83	–	–	–	0.3971	0.3776	0.3565
[1], x1 = 0.3998	780.42	775.78	771.15	–	–	–	0.4376	0.4157	0.396
[1], x1 = 0.5045	814.71	810.08	805.39	–	–	–	0.4958	0.4701	0.4451
[1], x1 = 0.5936	844.84	840.19	835.52	–	–	–	0.5596	0.529	0.5002
[1], x1 = 0.6834	876.15	871.52	866.76	–	–	–	0.6392	0.6028	0.5681
[1], x1 = 0.7909	914.94	910.25	905.45	–	–	–	0.756	0.71	0.6685
[1], x1 = 0.8975	954.65	949.92	945.31	–	–	–	0.9044	0.8483	0.7899
[1], x1 = 1	993.81	989.15	984.42	–	–	–	1.085	1.017	0.9285
[2], x1 = 0.095	–	–	–	1.3873	1.3844	1.3819	–	–	–
[2], x1 = 0.193	–	–	–	1.399	1.3952	1.3931	–	–	–
[2], x1 = 0.288	–	–	–	1.4109	1.4081	1.4061	–	–	–
[2], x1 = 0.391	–	–	–	1.4243	1.4217	1.4197	–	–	–
[2], x1 = 0.5121	–	–	–	1.4408	1.4382	1.4365	–	–	–
[2], x1 = 0.5942	–	–	–	1.4525	1.45	1.4483	–	–	–
[2], x1 = 0.678	–	–	–	1.4651	1.4626	1.4609	–	–	–
[2], x1 = 0.779	–	–	–	1.4807	1.4783	1.4767	–	–	–
[2], x1 = 0.881	–	–	–	1.497	1.4946	1.4931	–	–	–
[2], x1 = 1	–	–	–	1.5161	1.5141	1.5129	–	–	–

CCCCCCC [heptane] + COc1ccccc1
x2 = 0
Conditions	mass density, 293.15 K [kg/m3]	mass density, 298.15 K [kg/m3]	mass density, 303.15 K [kg/m3]	refractive index, 293.15 K	refractive index, 298.15 K	refractive index, 303.15 K	viscosity, 293.15 K [mPa·s]	viscosity, 298.15 K [mPa·s]	viscosity, 303.15 K [mPa·s]
[1]	683.96	679.77	675.5	–	–	–	0.4127	0.3909	0.3702
[2]	–	–	–	1.3872	1.3855	1.3827	–	–	–
